Data from patent US20140303246A1, “USE OF ADAMANTANE DERIVATIVES FOR THE TREATMENT OF ACTINIC KERATOSIS” (MERZ Pharma GmbH & Co. KGaA, priority 2011, published 2014).

Columns and labels:
[1] = Resazurin assay, viability of cells by metabolic activity; assay type: cell-based; settings: human, primary human epidermal keratinocytes (NHEK), metabolic activity (Resazurin) as read-out, read-out: IC50 for the cytolytic/cytotoxic effect based on metabolic activity
Protocol: (§1) By using primary human epidermal keratinocytes (NHEK, FIG. 1) the cytolytic potential of several drug compound was investigated.
(§2) The viability of the cells was monitored by their metabolic activity using the Resazurin—assay. Eight different concentrations (up to 1 mM) of amantadine were investigated. Viability of the cells was plotted against the different concentration of test compound.
(§3) From the resulting sigmoid-curve the IC50 value for the cytolytic effect was determined and given in the respective figure. FIG. 1 depicts the relative viability vs. the concentration on NHEK cells using metabolic activity as read-out.
(§4) For each of these compounds, the same experiments were performed in an analogous fashion to the compound of Example 1 except that the test items were prepared in separate plates starting with the double concentrated maximal test concentration followed by a 1:3 serial dilution and then added to the cells. The test items were tested at 6 replicates/concentration. In addition to metabolic activity also the release of cytoplasmatic-lactate dehydrogenase (LDH) was used to monitor cell death. Early release (after 6 hrs) indicate membrane damage a primary mode of action

[2] = tested on: primary human epidermal keratinocytes (NHEK); assay: as above; assay type: cell-based
Protocol: as §1, §2, §3, §4

[3] = tested on: NHEK cells; assay: Release of cytoplasmatic lactate dehydrogenase (LDH) to monitor cell death / membrane damage; assay type: cell-based, human
Protocol: as §4

SMILES	IC50 [1] [µM]	cytotoxic effect (in words) [2]	LDH-release at 6 hrs (early membrane damage) [3]
CC12CC3CC(C)(C1)CC(N)(C3)C2 [Memantine, 3,5-dimethyladamantan-1-amine]	330	clear cytotoxic activity	early membrane damage
CC(N)C12CC3CC(CC(C3)C1)C2 (stereo not shown) [Rimantadine, 1-(1-adamantyl)ethanamine]	660		
